In ChEMBL document CHEMBL1146285, “Trimethylsilylpyrazoles as novel inhibitors of p38 MAP kinase: a new use of silicon bioisosteres in medicinal chemistry” (Bioorg Med Chem Lett, 2007):

Legend:
Mus musculus [1] = assay: Suppression of lipopolysaccharide-induced TNFalpha release in mouse at 10 mg/kg, po after 120 mins; type: functional
Mus musculus [2] = assay: Suppression of lipopolysaccharide-induced TNFalpha release in mouse at 10 mg/kg, po after 30 mins; type: functional
[3] = Partition coefficient, log P of the compound; type: physicochemical; conditions: octanol/water
[4] = Distribution coefficient, log D at pH 6.0; type: physicochemical; conditions: octanol/water
[5] = Metabolic stability in human liver microsomes at 1 uM after 40 mins; type: ADME, Microsome; conditions: read-out: Stability
[6] = Distribution coefficient, log D at pH 6.5; type: physicochemical; conditions: octanol/water
[7] = Distribution coefficient, log D at pH 7.4; type: physicochemical; conditions: octanol/water

Compound: Cc1ccc(-n2nc(C(C)(C)C)cc2NC(=O)Nc2ccc(OCCN3CCOCC3)c3ccccc23)cc1 [DORAMAPIMOD]
- Activity (Mus musculus [1]): -40%
- Activity (Mus musculus [2]): -41%
- logP [3]: 5.2
- logD [4]: 4.6
- remaining at 40 min, 1 µM [5]: 79%
- logD [6]: 4.9
- logD [7]: 5.1
